# The supplement of paper PMC10307832
# Experiments:
# Assay in all cases: relative viability (nuclei count vs DMSO), 5 days (fraction); higher = more cells survive
# [1] = compound: N#CC[C@H](C1CCCC1)n1cc(-c2ncnc3[nH]ccc23)cn1 [Ruxolitinib] + Cc1nc(Nc2ncc(C(=O)Nc3c(C)cccc3Cl)s2)cc(N2CCN(CCO)CC2)n1 [Dasatinib] (partner 0.075 µM)
# Summary of the method: (§1)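 Relative viability divides the nuclei count in treated wells by that in vehicle wells. Lung cancer cell lines were seeded in 1536-well plates, dosed by pin tool the next day, and fixed and stained after 5 days in one step with final 0.05% Triton X-100, 1% formaldehyde and 1 ug/ml Hoechst. Dosing was a single drug or a fixed anchor-drug dose plus five library-drug doses (not always all listed) in √10 steps, and values are medians of duplicate plates imaged at 4×.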
# [2] = compound: N#CC[C@H](C1CCCC1)n1cc(-c2ncnc3[nH]ccc23)cn1 [Ruxolitinib] + COc1cc2c(Oc3ccc(NC(=O)C4(C(=O)Nc5ccc(F)cc5)CC4)cc3F)ccnc2cc1OCCCN1CCOCC1 [Foretinib] (partner 0.25 µM)
# Summary of the method: as §1
# [3] = compound: CS(=O)(=O)c1ccc(C(=O)Nc2ccc(Cl)c(-c3ccccn3)c2)c(Cl)c1 [Vismodegib] + NC(=O)Nc1cc(-c2cccc(F)c2)sc1C(=O)N[C@H]1CCCNC1 [AZD7762] (partner 0.2 µM)
# Summary of the method: as §1
# [4] = compound: CS(=O)(=O)c1ccc(-c2cnc(N)c(C(=O)Nc3ccccc3)n2)cc1 [VE-821] + Nc1nc2[nH]cc(CCc3ccc(C(=O)N[C@@H](CCC(=O)O)C(=O)O)cc3)c2c(=O)[nH]1 [Pemetrexed] (partner 0.2 µM)
# Summary of the method: as §1
Cell Line,relative viability ([1]; first compound 0.08 µM),relative viability ([1]; first compound 0.253 µM),relative viability ([1]; first compound 0.8 µM),relative viability ([1]; first compound 2.53 µM),relative viability ([1]; first compound 8 µM),relative viability ([2]; first compound 0.08 µM),relative viability ([2]; first compound 0.253 µM),relative viability ([2]; first compound 0.8 µM),relative viability ([2]; first compound 2.53 µM),relative viability ([2]; first compound 8 µM),relative viability ([3]; first compound 0.08 µM),relative viability ([3]; first compound 0.253 µM),relative viability ([3]; first compound 0.8 µM),relative viability ([3]; first compound 2.53 µM),relative viability ([3]; first compound 8 µM),relative viability ([4]; first compound 0.08 µM),relative viability ([4]; first compound 0.253 µM),relative viability ([4]; first compound 0.8 µM),relative viability ([4]; first compound 2.53 µM),relative viability ([4]; first compound 8 µM)
ChaGo-K-1,0.631,0.573,0.548,0.548,0.403,0.956,0.934,0.898,0.772,0.823,0.886,0.873,0.753,0.857,0.97,0.28,0.333,0.274,0.261,0.253
NCI-H441,0.507,0.432,0.698,0.396,0.672,1.07,0.915,0.997,0.787,0.855,1.1,,1.05,1.01,1.03,0.283,0.264,0.24,0.276,0.264
LU99A,0.628,0.607,0.514,0.429,0.38,0.882,0.858,0.787,0.69,0.641,0.333,0.324,0.537,0.353,0.325,0.191,0.156,0.16,0.125,0.113
EPLC-272H,0.399,0.402,0.42,0.243,0.134,0.645,0.635,0.79,0.573,0.472,0.3,0.166,0.304,0.163,0.257,0.347,0.36,0.218,0.141,0.0907
PC-14,,0.334,0.349,0.155,0.0674,,0.947,0.971,0.875,0.828,0.301,0.326,0.458,0.272,0.353,0.126,0.124,0.0908,0.0863,0.0432
LCLC-103H,0.418,0.448,0.564,0.382,0.362,0.808,0.672,0.881,0.71,0.661,0.752,0.796,0.735,0.774,0.834,0.47,0.439,0.518,0.475,0.437
NCI-H2342,0.315,0.299,0.341,0.31,0.319,1.07,0.936,1.17,1.07,1.11,0.576,0.479,0.633,0.362,0.416,0.792,0.777,0.804,0.736,0.667
SW 900,0.675,0.487,0.542,0.403,0.489,0.88,0.806,1.01,0.912,1.11,0.474,0.539,0.689,,0.61,0.494,0.504,0.461,0.46,0.221
